Experimental data taken from US20160303095A1, “METHODS OF TREATING HEPATITIS B VIRUS” (Gilead Sciences, Inc., priority 2015, published 2016).

Legend:
KDM3A = target: T1, KDM3A (Homo sapiens, UniProt Q9Y4C1); assay: Biochemical KDM inhibition assay (LANCE), KDM3A; details: read-out: Biochemical IC50 KDM 3A
T1 construct: host or cells: Sf9 cells
T1 sequence (Q9Y4C1 1-1321): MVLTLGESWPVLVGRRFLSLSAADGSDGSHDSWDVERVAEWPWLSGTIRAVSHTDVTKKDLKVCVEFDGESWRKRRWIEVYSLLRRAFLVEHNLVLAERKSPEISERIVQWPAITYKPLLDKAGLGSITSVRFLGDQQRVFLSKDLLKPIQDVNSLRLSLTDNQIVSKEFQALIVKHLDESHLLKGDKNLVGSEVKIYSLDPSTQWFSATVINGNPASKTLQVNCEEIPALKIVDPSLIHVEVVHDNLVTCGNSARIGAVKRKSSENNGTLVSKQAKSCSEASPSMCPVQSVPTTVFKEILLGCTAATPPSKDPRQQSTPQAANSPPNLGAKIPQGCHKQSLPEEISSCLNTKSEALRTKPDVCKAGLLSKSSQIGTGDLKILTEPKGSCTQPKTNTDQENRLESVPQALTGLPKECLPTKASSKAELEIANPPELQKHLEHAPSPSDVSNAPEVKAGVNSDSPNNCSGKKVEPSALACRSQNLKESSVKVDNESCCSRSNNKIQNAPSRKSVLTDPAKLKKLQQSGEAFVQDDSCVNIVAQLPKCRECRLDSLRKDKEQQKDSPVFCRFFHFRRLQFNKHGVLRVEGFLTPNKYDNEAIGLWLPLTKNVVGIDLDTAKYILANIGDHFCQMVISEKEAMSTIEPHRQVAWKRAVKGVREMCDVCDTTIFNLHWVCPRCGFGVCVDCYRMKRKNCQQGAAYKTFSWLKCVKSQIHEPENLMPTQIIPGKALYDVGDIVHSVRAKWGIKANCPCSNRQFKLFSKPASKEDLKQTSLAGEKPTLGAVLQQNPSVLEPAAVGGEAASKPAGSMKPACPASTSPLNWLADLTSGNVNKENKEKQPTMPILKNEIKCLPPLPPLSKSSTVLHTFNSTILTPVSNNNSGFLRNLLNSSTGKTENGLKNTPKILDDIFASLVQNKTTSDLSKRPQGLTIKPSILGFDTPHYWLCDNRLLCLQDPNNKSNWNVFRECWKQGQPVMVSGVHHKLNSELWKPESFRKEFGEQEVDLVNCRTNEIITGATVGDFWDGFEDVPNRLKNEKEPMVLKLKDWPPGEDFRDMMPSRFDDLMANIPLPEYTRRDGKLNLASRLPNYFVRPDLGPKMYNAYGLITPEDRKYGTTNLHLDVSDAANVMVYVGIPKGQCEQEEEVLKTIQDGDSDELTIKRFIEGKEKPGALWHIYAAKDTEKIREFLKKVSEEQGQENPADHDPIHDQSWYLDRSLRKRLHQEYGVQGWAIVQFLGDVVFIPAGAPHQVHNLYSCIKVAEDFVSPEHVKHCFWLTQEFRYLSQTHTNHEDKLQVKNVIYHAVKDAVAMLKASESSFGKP

KDM4C = target: T2, KDM4C (Homo sapiens, UniProt Q9H3R0); assay: Biochemical KDM inhibition assay (LANCE), KDM4C; details: read-out: Biochemical IC50 KDM 4C
T2 sequence (Q9H3R0 1-1056): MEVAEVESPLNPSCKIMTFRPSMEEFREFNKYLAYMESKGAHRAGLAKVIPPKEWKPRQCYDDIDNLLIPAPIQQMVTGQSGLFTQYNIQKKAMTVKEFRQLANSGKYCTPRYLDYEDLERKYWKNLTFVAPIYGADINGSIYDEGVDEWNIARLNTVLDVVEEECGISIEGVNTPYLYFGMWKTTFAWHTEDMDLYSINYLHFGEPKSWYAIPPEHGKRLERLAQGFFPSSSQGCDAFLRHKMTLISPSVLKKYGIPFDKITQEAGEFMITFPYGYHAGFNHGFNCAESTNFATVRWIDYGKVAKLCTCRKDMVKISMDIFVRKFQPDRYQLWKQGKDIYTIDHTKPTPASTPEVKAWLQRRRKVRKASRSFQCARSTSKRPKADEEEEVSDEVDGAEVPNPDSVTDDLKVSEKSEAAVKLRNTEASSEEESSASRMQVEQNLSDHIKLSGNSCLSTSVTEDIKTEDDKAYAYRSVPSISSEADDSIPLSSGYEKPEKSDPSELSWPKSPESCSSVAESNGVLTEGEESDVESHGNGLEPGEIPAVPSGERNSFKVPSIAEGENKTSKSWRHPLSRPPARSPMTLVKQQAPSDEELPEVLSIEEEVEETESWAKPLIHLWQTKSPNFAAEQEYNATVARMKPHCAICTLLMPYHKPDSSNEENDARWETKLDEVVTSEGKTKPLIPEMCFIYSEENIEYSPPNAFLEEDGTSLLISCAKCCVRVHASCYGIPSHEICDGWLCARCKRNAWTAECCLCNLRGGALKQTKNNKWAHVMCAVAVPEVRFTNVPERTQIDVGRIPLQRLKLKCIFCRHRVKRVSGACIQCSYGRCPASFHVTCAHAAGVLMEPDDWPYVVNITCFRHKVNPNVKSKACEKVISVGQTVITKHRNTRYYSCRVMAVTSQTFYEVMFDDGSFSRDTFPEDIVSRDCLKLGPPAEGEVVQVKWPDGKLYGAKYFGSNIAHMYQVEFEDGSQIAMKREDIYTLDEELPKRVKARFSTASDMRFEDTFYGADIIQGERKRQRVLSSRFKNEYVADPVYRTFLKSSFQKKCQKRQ

KDM4E = target: T3, KDM4E (Homo sapiens, UniProt B2RXH2); assay: Biochemical KDM inhibition assay (LANCE), KDM4E; details: read-out: Biochemical IC50 KDM 4E
T3 construct: host or cells: Sf9 cells
T3 sequence (B2RXH2 1-506): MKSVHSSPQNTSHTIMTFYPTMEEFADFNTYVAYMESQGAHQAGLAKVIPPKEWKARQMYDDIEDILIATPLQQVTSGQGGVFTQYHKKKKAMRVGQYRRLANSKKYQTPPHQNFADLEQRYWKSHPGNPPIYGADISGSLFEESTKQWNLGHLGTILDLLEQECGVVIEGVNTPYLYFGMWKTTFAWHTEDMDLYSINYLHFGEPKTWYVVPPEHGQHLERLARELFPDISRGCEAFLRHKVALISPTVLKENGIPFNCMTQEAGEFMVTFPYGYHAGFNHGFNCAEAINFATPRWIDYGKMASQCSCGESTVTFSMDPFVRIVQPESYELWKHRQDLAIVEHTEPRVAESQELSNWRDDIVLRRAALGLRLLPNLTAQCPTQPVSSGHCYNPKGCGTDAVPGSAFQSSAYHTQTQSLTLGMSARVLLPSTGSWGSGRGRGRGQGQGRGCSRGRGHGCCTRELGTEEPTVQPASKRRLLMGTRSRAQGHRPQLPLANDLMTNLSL

Row | Compound | IC50 (KDM3A) | IC50 (KDM4C) | IC50 (KDM4E)
1 | N#CNC(=O)c1ccncc1Nc1nn(CCN2CCC(F)(F)CC2)c2ccc(F)cc12 [Example 14] | 3.9 µM | 3.1 µM | 2.3 µM
2 | CCN(CCN(C)C)C(=O)CNCc1cc(C(=O)O)ccn1 [Example 9] | 1.1 µM | 0.057 µM | 0.035 µM
3 | Cc1cc(Cl)ccc1COc1ccnn1-c1cc(C(=O)O)ccn1 [Example 11] | 7.5 µM | 0.11 µM | 0.11 µM
4 | O=C(O)c1ccncc1Nc1nn(CCN2CCC(F)(F)CC2)c2ccc(F)cc12 [Example 13] |  | 0.26 µM | 0.67 µM
5 | Nc1c(C(=O)O)ccnc1C(=O)O [Example 7, reference compound] | 1.2 µM | 0.11 µM | 0.064 µM
6 | CCN(CC)CCCCNCc1cc(C(=O)O)ccn1 [Example 18] | 5.4 µM | 0.35 µM | 1.2 µM
